# In patent US11352349B2, “Type II topoisomerase inhibitors and methods of making and using thereof” (Ohio State Innovation Foundation, priority 2017, dated 2022):
# Experiments:
# [1] = target: T1, Staphylococcus aureus Topo IV (Staphylococcus aureus, UniProt P0C1S7+P0C1U9); assay: Staphylococcus aureus Topo IV decatenation assay; type: biochemical; settings: S. aureus Topo IV decatenation; read-out: TopolV Decat IC50
# T1 construct: purchased Inspiralis, Norwich, UK
# Experimental: (§1) A subset of analogs was used to assess the degree of inhibition of DNA gyrase or TopoIV (Inspiralis, Norwich, UK), both to establish the mechanism of action and to evaluate the relative balance of inhibitory activities (Table 1). A subset of compound was also assayed to determine the degree of inhibition of human topoisomerase II (Inspiralis, Norwich, UK)).
# (§2) In all experiments, the activity of the enzymes was determined prior to the testing of the compounds and 1 unit (U) was defined as the amount of enzyme required to just fully supercoil, relax or decatenate the substrate (see explanation of gels). This amount of enzyme was initially used in determination of control inhibitor activity. These experiments were performed in duplicate.
# (§3) For all assays the final DMSO concentration was 1%. 10 mM stocks of the compounds were serially diluted into 10% DMSO at 1 mM, 0.5 mM, 0.25 mM, 0.1 mM, 0.05 mM, 0.01 mM, 0.005 mM, 0.001 mM, 0.0005 mM, 0.0001 mM and 0.00005 mM. 3.0 μl of each dilution was added to a 30 μl assay.
# (§4) Bands were visualised by ethidium staining for 20 minutes and destaining for 20 minutes. Gels were scanned using documentation equipment (GeneGenius, Syngene, Cambridge, UK) and % inhibition levels (where appropriate) were obtained with gel scanning software. (GeneTools, Syngene, Cambridge, UK)
# Staphylococcus aureus Topo IV Decatenation Assay
# 1 U of Topo IV was incubated with 200 ng kDNA DNA in a 30 μl reaction at 37° C. for 30 minutes under the following conditions: 50 mM Tris.HCl (7.5), 5 mM MgCl2, 5 mM DTT, 1.5 mM ATP, 350 mM potassium glutamate and 0.05 mg/ml BSA.
# Each reaction was stopped by the addition of 30 μl chloroform/iso-amyl alcohol (26:1) and 30 μl Stop Dye, before being loaded on a 1.0% TAE gel run at 70V for 2 hours.
# [2] = target: T2, Staphylococcus aureus gyrase (Staphylococcus aureus, UniProt P0A0K8+P20831); assay: Staphylococcus aureus gyrase supercoiling assay; type: biochemical; settings: S. aureus DNA gyrase supercoiling; read-out: Gyrase IC50
# T2 construct: purchased Inspiralis, Norwich, UK
# Experimental: as §1, §2, §3, §4
# Staphylococcus aureus gyrase supercoiling
# 1 U of DNA gyrase was incubated with 0.5 μg of relaxed pBR322 DNA in a 30 μl reaction at 37° C. for 30 minutes under the following conditions: 40 mM HEPES. KOH (pH 7.6), 10 mM magnesium acetate, 10 mM DTT, 2 mM ATP, 500 mM potassium glutamate and 0.05 mg/ml BSA.
# Each reaction was stopped by the addition of 30 μl chloroform/iso-amyl alcohol (26:1) and 30 μl Stop Dye (40% sucrose (w/v), 100 mM Tris.HCl (pH 7.5), 10 mM EDTA, 0.5 μg/ml bromophenol blue), before being loaded on a 1.0% TAE gel run at 70V for 2 hours.
# S. aureus ATCC 29213 = assay: MIC by broth microdilution (CLSI), quality control strain S. aureus ATCC 29213; type: cell-based, Staphylococcus aureus; settings: multiple values when multiple MIC assays were conducted; for MIC: Staphylococcus aureus, ATCC29213, S. aureus ATCC 29213; for MIC 29213: S. aureus ATCC 29213
# Experimental: Minimum inhibitory concentrations were determined using the quality control strain S. aureus ATCC 29213 (Table 1) by the broth microdilution method according to guidelines of the Clinical and Laboratory Standards Institute (CLSI) (Cockerill, F. R.; et al., 2012, Methods for dilution antimicrobial susceptibility tests for bacteria that grow aerobically; approved standard-ninth edition. MA07-A9. Clinical and Laboratory Standard Institute, Wayne, Pa.). […] Published quality control ranges for gepotidacin and ciprofloxacin were used to validate each assay. MICs for selected compounds were also determined using a USA 300 strain of MRSA (Hidron, et al., Lancet Infect. Dis. 2009, 9:384-392). Vancomycin was used as an additional control.
# human topo II = target: T3, human topo II (Homo sapiens, UniProt P11388); assay: Topoisomerase II (alpha) decatenation assay; type: biochemical; settings: activity remaining at 100 μM compound; read-out: hTopoll (% activity remaining at 100 μM)
# T3 construct: purchased Inspiralis, Norwich, UK
# Experimental: as §1, §2, §3, §4
# Topoisomerase II (Alpha) Decatenation Assay
# Each reaction was stopped by the addition of 30 μl chloroform/iso-amyl alcohol (26:1) and 30 μl Stop Dye, before being loaded on a 1.0% TAE gel run at 90V for 2 hours.
# USA 300 strain of MRSA = assay: MIC by broth microdilution, USA 300 strain of MRSA; type: cell-based, Staphylococcus aureus; settings: Staphylococcus aureus, multiple values when multiple MIC assays were conducted, read-out: MIC USA300
# Experimental: Minimum inhibitory concentrations were determined using the quality control strain S. aureus ATCC 29213 (Table 1) by the broth microdilution method according to guidelines of the Clinical and Laboratory Standards Institute (CLSI) (Cockerill, F. R.; et al., 2012, Methods for dilution antimicrobial susceptibility tests for bacteria that grow aerobically; approved standard-ninth edition. MA07-A9. Clinical and Laboratory Standard Institute, Wayne, Pa.). […] MICs for selected compounds were also determined using a USA 300 strain of MRSA (Hidron, et al., Lancet Infect. Dis. 2009, 9:384-392). Vancomycin was used as an additional control.
# T2 sequence (P20831 whole entry): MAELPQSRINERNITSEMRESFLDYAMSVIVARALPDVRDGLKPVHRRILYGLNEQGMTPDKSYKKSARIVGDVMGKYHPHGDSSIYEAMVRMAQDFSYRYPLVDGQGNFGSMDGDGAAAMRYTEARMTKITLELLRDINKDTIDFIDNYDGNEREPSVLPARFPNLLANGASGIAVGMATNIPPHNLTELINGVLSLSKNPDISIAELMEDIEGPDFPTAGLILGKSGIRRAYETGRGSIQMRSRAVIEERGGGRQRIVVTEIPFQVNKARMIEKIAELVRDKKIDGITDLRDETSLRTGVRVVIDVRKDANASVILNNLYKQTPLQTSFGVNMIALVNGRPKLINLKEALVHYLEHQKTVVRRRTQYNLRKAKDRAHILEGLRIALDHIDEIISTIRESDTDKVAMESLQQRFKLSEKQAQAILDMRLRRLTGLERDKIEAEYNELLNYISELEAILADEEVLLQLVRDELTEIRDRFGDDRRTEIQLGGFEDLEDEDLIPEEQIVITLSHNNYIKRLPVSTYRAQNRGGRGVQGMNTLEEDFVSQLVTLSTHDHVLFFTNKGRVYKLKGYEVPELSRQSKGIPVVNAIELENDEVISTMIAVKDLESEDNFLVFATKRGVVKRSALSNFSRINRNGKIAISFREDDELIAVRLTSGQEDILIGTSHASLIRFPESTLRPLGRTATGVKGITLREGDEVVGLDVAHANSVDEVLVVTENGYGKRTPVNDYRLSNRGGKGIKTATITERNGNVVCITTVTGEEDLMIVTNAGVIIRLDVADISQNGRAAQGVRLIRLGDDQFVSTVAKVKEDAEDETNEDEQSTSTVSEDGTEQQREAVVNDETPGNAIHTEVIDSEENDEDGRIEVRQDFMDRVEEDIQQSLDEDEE
# T2 sequence (P0A0K8 whole entry): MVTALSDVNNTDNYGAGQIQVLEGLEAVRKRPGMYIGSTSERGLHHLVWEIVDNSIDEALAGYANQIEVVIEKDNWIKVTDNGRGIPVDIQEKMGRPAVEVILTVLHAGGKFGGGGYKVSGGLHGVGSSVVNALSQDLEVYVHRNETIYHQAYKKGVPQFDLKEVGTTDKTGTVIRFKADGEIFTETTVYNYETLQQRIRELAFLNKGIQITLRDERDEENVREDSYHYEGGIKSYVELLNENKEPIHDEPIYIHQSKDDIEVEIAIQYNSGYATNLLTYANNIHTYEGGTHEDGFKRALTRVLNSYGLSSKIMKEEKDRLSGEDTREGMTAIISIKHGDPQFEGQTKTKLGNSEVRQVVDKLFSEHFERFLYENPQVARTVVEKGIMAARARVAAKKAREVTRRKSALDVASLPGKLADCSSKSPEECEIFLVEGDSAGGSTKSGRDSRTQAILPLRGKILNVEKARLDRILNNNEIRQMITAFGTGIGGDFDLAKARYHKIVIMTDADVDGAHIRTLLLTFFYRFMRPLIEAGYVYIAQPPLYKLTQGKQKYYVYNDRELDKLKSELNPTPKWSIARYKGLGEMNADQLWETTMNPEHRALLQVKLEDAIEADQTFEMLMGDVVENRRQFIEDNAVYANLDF
# T1 sequence (P0C1S7 whole entry): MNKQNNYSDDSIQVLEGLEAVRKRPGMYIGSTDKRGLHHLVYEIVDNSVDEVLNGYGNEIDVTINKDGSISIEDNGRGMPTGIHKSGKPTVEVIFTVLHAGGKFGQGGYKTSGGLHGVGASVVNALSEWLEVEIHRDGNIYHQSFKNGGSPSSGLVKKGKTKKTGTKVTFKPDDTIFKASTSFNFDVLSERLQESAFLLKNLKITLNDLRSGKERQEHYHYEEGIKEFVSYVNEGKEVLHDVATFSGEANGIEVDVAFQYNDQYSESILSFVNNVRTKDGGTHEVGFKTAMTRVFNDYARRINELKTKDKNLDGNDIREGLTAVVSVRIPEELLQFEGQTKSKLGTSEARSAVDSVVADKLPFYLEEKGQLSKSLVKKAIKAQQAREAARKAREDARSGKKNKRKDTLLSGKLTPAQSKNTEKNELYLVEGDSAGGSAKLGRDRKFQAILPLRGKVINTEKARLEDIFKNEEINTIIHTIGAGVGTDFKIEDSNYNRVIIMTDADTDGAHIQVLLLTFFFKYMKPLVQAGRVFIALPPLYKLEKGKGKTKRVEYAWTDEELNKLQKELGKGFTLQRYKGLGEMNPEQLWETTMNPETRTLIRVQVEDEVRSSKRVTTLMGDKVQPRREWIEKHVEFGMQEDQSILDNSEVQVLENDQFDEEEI
# T1 sequence (P0C1U9 whole entry): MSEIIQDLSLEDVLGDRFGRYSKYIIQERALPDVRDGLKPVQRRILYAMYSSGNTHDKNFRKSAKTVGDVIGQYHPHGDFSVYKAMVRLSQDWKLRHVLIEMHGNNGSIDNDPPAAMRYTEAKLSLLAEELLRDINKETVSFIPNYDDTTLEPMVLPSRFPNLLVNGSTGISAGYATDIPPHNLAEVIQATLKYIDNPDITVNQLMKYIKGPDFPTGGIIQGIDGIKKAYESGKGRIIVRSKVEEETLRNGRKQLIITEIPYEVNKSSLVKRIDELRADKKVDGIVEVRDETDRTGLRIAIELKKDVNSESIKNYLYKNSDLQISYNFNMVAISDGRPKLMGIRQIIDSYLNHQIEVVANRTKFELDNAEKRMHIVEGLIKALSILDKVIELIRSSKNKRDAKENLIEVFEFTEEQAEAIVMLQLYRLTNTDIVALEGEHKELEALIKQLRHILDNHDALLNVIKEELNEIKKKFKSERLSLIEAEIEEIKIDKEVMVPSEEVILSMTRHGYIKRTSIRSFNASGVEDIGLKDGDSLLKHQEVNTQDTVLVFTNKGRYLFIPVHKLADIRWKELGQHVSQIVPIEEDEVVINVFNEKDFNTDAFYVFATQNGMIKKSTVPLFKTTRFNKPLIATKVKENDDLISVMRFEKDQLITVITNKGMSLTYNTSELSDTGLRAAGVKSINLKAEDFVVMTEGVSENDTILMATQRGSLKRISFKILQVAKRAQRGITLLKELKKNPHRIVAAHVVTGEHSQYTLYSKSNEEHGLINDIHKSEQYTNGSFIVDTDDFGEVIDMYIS
# T3 sequence (P11388 whole entry): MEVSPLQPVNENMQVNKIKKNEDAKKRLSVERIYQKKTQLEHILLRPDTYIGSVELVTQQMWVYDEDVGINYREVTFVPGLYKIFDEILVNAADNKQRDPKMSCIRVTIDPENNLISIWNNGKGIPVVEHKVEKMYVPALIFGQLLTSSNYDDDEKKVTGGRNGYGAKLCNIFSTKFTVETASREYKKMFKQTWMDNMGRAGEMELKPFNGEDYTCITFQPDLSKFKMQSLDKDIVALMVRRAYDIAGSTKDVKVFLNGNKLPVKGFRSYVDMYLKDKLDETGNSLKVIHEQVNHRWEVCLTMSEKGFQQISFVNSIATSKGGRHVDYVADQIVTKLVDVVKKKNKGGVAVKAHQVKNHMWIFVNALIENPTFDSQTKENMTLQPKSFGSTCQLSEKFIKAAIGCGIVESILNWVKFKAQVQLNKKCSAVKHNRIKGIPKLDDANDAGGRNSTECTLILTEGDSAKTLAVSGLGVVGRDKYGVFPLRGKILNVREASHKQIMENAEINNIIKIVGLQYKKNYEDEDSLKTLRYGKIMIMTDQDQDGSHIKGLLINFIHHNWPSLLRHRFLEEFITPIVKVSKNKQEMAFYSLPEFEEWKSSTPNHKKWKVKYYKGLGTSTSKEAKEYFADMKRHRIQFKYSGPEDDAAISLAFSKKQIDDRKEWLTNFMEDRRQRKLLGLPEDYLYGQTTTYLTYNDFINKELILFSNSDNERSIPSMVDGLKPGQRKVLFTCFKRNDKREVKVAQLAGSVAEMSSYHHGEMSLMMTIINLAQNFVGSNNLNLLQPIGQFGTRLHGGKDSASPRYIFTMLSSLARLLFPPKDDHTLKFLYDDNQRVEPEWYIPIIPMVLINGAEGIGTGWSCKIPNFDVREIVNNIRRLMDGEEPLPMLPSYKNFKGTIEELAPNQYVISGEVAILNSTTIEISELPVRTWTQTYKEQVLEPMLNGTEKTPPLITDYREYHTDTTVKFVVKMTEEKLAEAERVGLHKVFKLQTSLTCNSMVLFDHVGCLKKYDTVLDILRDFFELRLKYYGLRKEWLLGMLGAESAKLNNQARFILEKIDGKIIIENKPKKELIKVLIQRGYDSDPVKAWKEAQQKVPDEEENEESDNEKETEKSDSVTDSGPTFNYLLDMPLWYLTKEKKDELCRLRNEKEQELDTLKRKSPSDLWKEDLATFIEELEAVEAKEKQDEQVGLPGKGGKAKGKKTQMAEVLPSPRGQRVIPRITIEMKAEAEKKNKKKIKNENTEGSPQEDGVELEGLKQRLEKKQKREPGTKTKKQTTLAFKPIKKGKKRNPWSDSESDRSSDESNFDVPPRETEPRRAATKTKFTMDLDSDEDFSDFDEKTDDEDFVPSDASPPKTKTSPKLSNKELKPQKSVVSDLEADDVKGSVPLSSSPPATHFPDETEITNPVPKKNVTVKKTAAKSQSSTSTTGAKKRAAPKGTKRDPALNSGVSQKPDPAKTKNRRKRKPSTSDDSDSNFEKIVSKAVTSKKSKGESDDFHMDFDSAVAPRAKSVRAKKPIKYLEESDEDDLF
SMILES,IC50 [1] [µM],IC50 [2] [nM],MIC (S. aureus ATCC 29213) [µg/mL],remaining activity at 100 µM (human topo II) [%],MIC (USA 300 strain of MRSA) [µg/mL],MIC 29213 (S. aureus ATCC 29213) [µg/mL]
"COc1ccc(CN[C@H]2CO[C@H](CCc3ccnc4ccc(OC)cc34)OC2)cc1 [AB-0031, N-(4-methoxybenzyl)-2-(2-(6-methoxyquinolin-4-yl)ethyl)-trans-1,3-dioxan-5-amine]",> 100,1530,4,98.7,,
"COc1ccc2nccc(CC[C@H]3OC[C@H](NCc4ccc5c(c4)OC(F)(F)O5)CO3)c2c1 [AB-0080, N-((2,2-difluorobenzo[d][1,3]dioxol-5-yl)methyl)-2-(2-(6-methoxyquinolin-4-yl)ethyl)-trans-1,3-dioxan-5-amine]",,,1,,2,
COc1ccc2nccc(CC[C@H]3OC[C@H](NCc4ccc(C)cc4)CO3)c2c1 [AB-0044],,,1,,1,
"COc1ccc2ncc(=O)n(CC(O)[C@H]3OC[C@H](NCc4cc5c(cn4)OCCO5)CO3)c2c1 (stereo partly drawn) [AB-0077, 1-(2-(5-(((2,3-dihydro-[1,4]dioxino[2,3-c]pyridin-7-yl)methyl)amino)-trans-1,3-dioxan-2-yl)-2-hydroxyethyl)-7-methoxyquinoxalin-2(1H)-one]",,,1,,2,
"COc1ccc2nccc(CC[C@H]3OC[C@H](NCc4ccc(C(F)(F)F)cc4)CO3)c2c1 [AB-0071, 2-(2-(6-methoxyquinolin-4-yl)ethyl)-N-(4-(trifluoromethyl)benzyl)-trans-1,3-dioxan-5-amine]",,,1,,2,
"COc1ccc2nccc(/C=C/[C@H]3OC[C@H](NCc4ccc5c(c4)OCCO5)CO3)c2c1 [AB-0010, N-((2,3-dihydrobenzo[b][1,4]dioxin-6-yl)methyl)-2-((E)-2-(6-methoxyquinolin-4-yl)vinyl)-trans-1,3-dioxan-5-amine]",,,1,,1,2
"COc1ccc2nccc(/C=C/[C@H]3OC[C@H](NCc4ccc(Cl)c(Cl)c4)CO3)c2c1 [AB-0009, N-(3,4-dichlorobenzyl)2-((E)-2-(6-methoxyquinolin-4-yl)vinyl)-trans-1,3-dioxan-5-amine]",,,≤ 0.25,,0.5,
COc1ccc2ncc(F)c(C(O)C[C@H]3OC[C@H](NCc4cc5c(cn4)OCCO5)CO3)c2c1 (some centres unmarked) [AB-0046],,600,0.5,88.3,1,
"COc1ccc2ncc(F)c(C(O)C[C@H]3OC[C@H](NCc4cc5c(cn4)OCCO5)CO3)c2n1 (stereo partly drawn) [AB-0083, 2-(5-(((2,3-dihydro-[1,4]dioxino[2,3-c]pyridin-7-yl)methyl)amino)-trans-1,3-dioxan-2-yl)-1-(3-fluoro-6-methoxy-1,5-naphthyridin-4-yl)ethanol]",,,0.5,,1,
"COc1ccc2ncc(F)c(CC[C@H]3OC[C@H](NCc4ccc(Cl)c(Cl)c4)CO3)c2n1 [AB-0017, N-(3,4-dichlorobenzyl)-2-(2-(3-fluoro-6-methoxy-1,5-naphthyridin-4-yl)ethyl)-trans-1,3-dioxan-5-amine]",,,0.25,,0.125,
"COc1ccc2nccc(CC[C@H]3OC[C@H](NCc4ccc5c(c4)OCO5)CO3)c2c1 [AB-0079, N-(benzo[d][1,3]dioxol-5-ylmethyl)-2-(2-(6-methoxyquinolin-4-yl)ethyl)-trans-1,3-dioxan-5-amine]",,,2,,4,
"COc1ccc2nccc(CC[C@H]3OC[C@H](NCc4ccc(OC(F)(F)F)cc4)CO3)c2c1 [AB-0081, 2-(2-(6-methoxyquinolin-4-yl)ethyl)-N-(4-(trifluoromethoxy)benzyl)-trans-1,3-dioxan-5-amine]",,,2,,4,
"COc1ccc2ncc(=O)n(CC[C@H]3OC[C@H](NCc4ccc5c(c4)OCCO5)CO3)c2c1 [AB-0002, 1-(2-(5-(((2,3-dihydrobenzo[b][1,4]dioxin-6-yl)methyl)amino)-1,3-trans-dioxan-2-yl)ethyl)-7-methoxyquinoxalin-2(1H)-one]",> 100,2010,4,97.5,,
"COc1ccc2nccc(CC[C@H]3OC[C@H](NCc4ccc(F)c(Cl)c4)CO3)c2c1 [AB-0023, N-(3-chloro-4-fluorobenzyl)-2-(2-(6-methoxyquinolin-4-yl)ethyl)-trans-1,3-dioxan-5-amine]",> 100,2100,8,97.7,,
"COc1ccc2nccc(CC[C@H]3OC[C@H](NCc4ccc(C(F)F)cc4)CO3)c2c1 [AB-0085, N-(4-(difluoromethyl)benzyl)-2-(2-(6-methoxyquinolin-4-yl)ethyl)-trans-1,3-dioxan-5-amine]",,,2,,4,
"COc1ccc2ncc(F)c(C(O)C[C@H]3OC[C@H](NCc4ccc(Cl)c(Cl)c4)CO3)c2c1 (stereo partly drawn) [AB-0019, 2-(5-((3,4-dichlorobenzyl)amino)-trans-1,3-dioxan-2-yl)-1-(3-fluoro-6-methoxyquinolin-4-yl)ethan-1-ol]",,,≤ 0.25,,0.5,
"COc1ccc2ncc(=O)n(CC(O)[C@H]3OC[C@H](NCc4ccc5c(c4)OCCO5)CO3)c2c1 (stereo partly drawn) [AB-0076, 1-(2-(5-(((2,3-dihydrobenzo[b][1,4]dioxin-6-yl)methyl)amino)-trans-1,3-dioxan-2-yl)-2-hydroxyethyl)-7-methoxyquinoxalin-2(1H)-one]",,,,,1,
"COc1ccc2nccc(CC[C@H]3OC[C@H](NCc4ccc(F)cc4F)CO3)c2c1 [AB-0039, N-(2,4-difluorobenzyl)-2-(2-(6-methoxyquinolin-4-yl)ethyl)-trans-1,3-dioxan-5-amine]",,,64,,,
"COc1ccc2nccc(CC[C@H]3OC[C@H](NC(=O)c4ccccc4)CO3)c2c1 [AB-0075, N-(2-(2-(6-methoxyquinolin-4-yl)ethyl)-trans-1,3-dioxan-5-yl)benzamide]",,,16,,,32
"COc1ccc2nccc(CC[C@H]3OC[C@H](NCc4cccc(F)c4)CO3)c2c1 [AB-0050, N-(3-fluorobenzyl)-2-(2-(6-methoxyquinolin-4-yl)ethyl)-trans-1,3-dioxan-5-amine]",,,32,,,
"COc1ccc2nccc(CC[C@H]3OC[C@H](NCc4cc(F)ccc4F)CO3)c2c1 [AB-0022, N-(2,5-difluorobenzyl)-2-(2-(6-methoxyquinolin-4-yl)ethyl)-trans-1,3-dioxan-5-amine]",,,64,,,
"COc1ccc2nccc(CC[C@H]3OC[C@H](NCc4cccc(Cl)c4)CO3)c2c1 [AB-0037, N-(3-chlorobenzyl)-2-(2-(6-methoxyquinolin-4-yl)ethyl)-trans-1,3-dioxan-5-amine]",,,32,,,
"COc1ccc2nccc(CC[C@H]3OC[C@H](NCc4ccc(C(C)(C)C)cc4)CO3)c2c1 [AB-0082, N-(4-(tert-butyl)benzyl)-2-(2-(6-methoxyquinolin-4-yl)ethyl)-trans-1,3-dioxan-5-amine]",,,2,,4,
